# How the values were obtained:
# [1] = Inhibition of LPA-mediated ATX activation in human BJeH cells assessed as AKT phosphorylation level incubated for 30 mins by Western blot analysis
# [2] = Inhibition of LPA-mediated ATX activation in human BJeH cells assessed as ERK phosphorylation level incubated for 30 mins by Western blot analysis
compound,measurement,setting,value
C[C@H](CCC(=O)N1CCC(Oc2ccc([B-](F)(F)F)cc2)CC1)[C@H]1CC[C@H]2C3[C@@H](O)C[C@@H]4C[C@H](O)CC[C@]4(C)[C@H]3CC[C@]12C (some centres not stated),EC50,[1],100 nM
same,EC50,[2],100 nM
